Values joined by “and” are separate entries in the source; they are usually repeats but may differ in a detail not shown here. Equal entries are not always repeated.
Key:
[1] = system: rabbits (New Zealand White species, male); assay: Test on the primary irritation of the skin; format: in vivo, rabbit; conditions: for Evaluation Value For irritation: alone, shaved rabbit back, blocked 24 hours; for effect on the primary irritation of the skin when used in combination with the irritant: in comparison with the irritant used singly, rabbit
Protocol: Each back portion of rabbits (New Zealand White species, male) was shaved and each of the test compounds was applied thereto. Each of the test compound-applied portions was blocked for 24 hours, After 24, 48, 72 and 168 hours from the time of applying the test compound, the judgments were conducted for the erythema and edema appeared on the test compound-applied portion based on their standards indicated in table 1. The average evaluation value in each time at which the judgment was conducted was calculated (the value obtained by dividing the combined value of the evaluation value for erythema and that for edema by the number of animal used in the test). In addition, the average evaluation value in each time at which the judgment was conducted was all added up and the total value was divided by the number of judgment (4 times) to make the evaluation value of the primary initation.

adult men [2] = assay: Test in human on function of inhibiting the irritation induced by an organic acid (solution B applied 4 minutes before glycolic acid solution A); format: in vivo; conditions: glycolic acid concentration: 20%
Protocol: A series of tests were conducted by three adult men with respect to the function of inhibiting the irritation of the skin induced an organic acid. […] After all of the panelists washed their faces, solution B (or solution C) was applied to each right cheek (or each left cheek) of the their faces with a cotton bud. […] The irritation which each of the panelists felt at the solution-applied portion was recorded as the score every a minute after a minute from the time of applying the solution for 5 minutes based on its evaluation standards shown below. In addition, the function of the test compound (N, N′-diacetyl-L-cystine dimethyl ester) for inhibiting the irritation was judged based on the judging standards shown below.

an adult = assay: Test in human on function of inhibiting erythema and irritation (tape-stripped forearm, protopic ointment); format: in vivo; conditions: skin where the barrier function was reduced by tape stripping (30 times)
Protocol: A series of tests were conducted by an adult With respect to the function of inhibiting the skin erythema and irritation induced by an organic acid. A test solution of N, N′-diacetyl-L-cystine dimethyl ester dissolved in a 25% aqueous ethanol solution (the concentration of N, N′-diacetyl-L-cystine dimethyl ester; 10%) was prepared. A solution of only the solvents was separately prepared as control solution. 30 Times of tape stripping were conducted on the inward portion of the panelist's forearm. To the portion which the tape stripping procedures have been conducted was applied {circle over (2)} test solution (or control solution) in addition to {circle over (1)} control (any solvent is not applied). After 4 minutes, to each of the portions ({circle over (1)} control portion (both forearms) {circle over (2)} test solution-applied portion and {circle over (3)} control solution-applied portion) was applied protopic ointment (tacrolimus: 1 mg/g), and the erytherma and irritation appeared on each of the portions after an additional 5 minutes were evaluated. […] In the skin where the barrier function of the skin was reduced by tape stripping (30 times), erytherma and irritation caused by the protopic ointment were suppressed by N, N′-diacetyl-L-cystine dimethyl ester.

adult men [3] = assay: Test in human on function of inhibiting the irritation induced by an organic acid (test solution applied 3 minutes before glycolic acid); format: in vivo; conditions: glycolic acid concentration: 10%
Protocol: A series of tests were conducted by four adult men with respect to the function of inhibiting the irritation of the skin induced an organic acid. There were prepared a solution of glycolic acid dissolved in a 25% aqueous ethanol solution (the concentration of glycolic acid: 10%) and a test solution of N, N′-diacetyl-L-cystine dimethyl ester dissolved in the same solvents (the concentration of N, N′-diacetyl-L-cystine dimethyl ester: 10%). A solution of only the solvent was separately prepared as the control solution. After all of the panelists washed their faces, either test solution or control solution was applied to each right cheek of the their faces with a cotton bud. After additional 3 minutes, the glycolic acid solution was applied to the same portion as in the above and the irritation which each of the panelists felt was recorded as the score every a minute after a minute from the time of applying the glycolic acid solution for 10 minutes based on its evaluation standards shown below. […] After additional 3 minutes, the glycolic acid solution was applied to the same portion and the irritation which each of the panelists felt at the applied portion was similarly recorded as the score every a minute after a minute from the time of applying the glycolic acid solution for 10 minutes. […]

[4] = concentration 3%, erythema + edema averaged over 24, 48, 72 and 168 hours

For `CCCCCCCCCCCCCCCCCC[N+](C)(C)C.[Cl-]` [Stearyl trimethyl ammonium chloride], the “Evaluation Value For irritation” value [1, 4] was 3.7.
`CCCCCCCC(=O)N[C@@H](CSSC[C@H](NC(=O)CCCCCCC)C(=O)OC)C(=O)OC` [N,N′-dioctanoyl-L-cystine dimethyl ester] was tested, and the “effect on the primary irritation of the skin when used in combination with the irritant” value [1] was “mitigates the primary irritation of the skin”.
For `CC(O)C(=O)O` (stereo not drawn) [Lactic acid], the “Evaluation Value For irritation” value ([1]; concentration 70%, erythema + edema averaged over 24, 48, 72 and 168 hours) was 1.4.
For `CCCCCCCCCCCCOS(=O)(=O)[O-].[Na+]` [Sodium lauryl sulfate], the “Evaluation Value For irritation” value ([1]; concentration 5%, erythema + edema (each 0-4) averaged over judgments at 24, 48, 72 and 168 hours, sulfate) was 6.6 and 6.4.
With Benzalkonium chloride the “Evaluation Value For irritation” value [1, 4] was 5.3.
With `COC(=O)[C@H](CSSC[C@H](NC(C)=O)C(=O)OC)NC(C)=O` [N,N′-diacetyl-L-cystine dimethyl ester] the “inhibitory function in human toward irritation caused by glycolic acid” value (adult men [2]) was “exhibited inhibitory function”, the “effect on the primary irritation of the skin when used in combination with the irritant” value [1] was “mitigates the primary irritation of the skin” and the “erythema and irritation caused by the protopic ointment” value (an adult) was “suppressed”. For the same molecule, the “inhibitory function in human toward irritation caused by glycolic acid” value (adult men [3]) was “exhibited inhibitory function”.
